In US20030207813A1, “Retroviral protease inhibitor combinations” (priority 1995, published 2003):
Converted amounts (≈) assume the structure as drawn. Like-named read-outs stand apart in the source and are kept apart here.

Tests used:
[1] = test system: RFR2 (RFR cloned by three rounds of limiting dilution); experiment: CEM-T4 cell infection assay, reverse transcriptase readout, resistant isolate RFR2; type: cell-based, HIV-1; conditions: Human immunodeficiency virus 1, 168 h, Table 6, CEM-T4 cells, 7 days, read-out: Virus Isolate (EC50 ng/mL) RFR2
Source text: (§1) RF represents the HIV-1 strain HIV-LRF and RFR represents a mixture of resistant strains obtained by selection of RF against the compound of Example 1. RFR comprises a mixture of viral strains having protease genotypes of G48V (14/40 clones); G48V, V82A (18/40 clones); G48V, L90S (2/40 clones); G48V, 154T, V82A (1/40 clones); G48M (1/40 clones); G48V, Q61H (1/40 clones); V13I, G48V (1/40 clones); G48V, F53L, V82A (1/40 clones); and G48V, V82A, C95Y (1/40 clones). RFR2 represents a mixture of resistant strains obtained by cloning RFR by three rounds of growth at limiting dilution. RFR2 comprises a mixture of viral strains having protease genotypes of G48V, V82A (13/15 clones); G17E, G48V, V82A (1/15 clones); and G48V, V82A, N37D, N88D (1/15 clones). RFRR represents a mixture of resistant strains obtained by selection of RF against the compounds of Examples 1 and 2 and then cloning by three rounds of growth at limiting dilution. RFRR comprises a mixture of viral strains having protease genotypes of G48V, 154T, L63P, V82A (7/9 clones); G48V, 154T, L63P, V82A, N88S (1/9 clones); and G48V, 154T, L63P, G73M, V82A (1/9 clones). SF162 represents the HIV-1 strain SF-162 and SF162R represents a mixture of resistant strains obtained by selection of SF162 against the compound of Example 1. SF162R comprises a mixture of viral strains having protease genotypes of M461, F53L, L63P, A71V, N88D (2/3 clones); and M46I, F53L, L63P, A71V, N88D, Q92R (1/3 clones). 89-959 represents the HIV-1 strain 89-959 and 89-959R represents a mixture of resistant strains obtained by selection of 89-959 against the compound of Example 2. 89-959R comprises a mixture of viral strains having protease genotypes of N88S (4/5 clones); and D25N, T26A, D30N, D37N, R41K, G73D, R87K, N88S (1/4 clones). NL4 represents the HIV-1 strain HIV-1NL4-3. NL4(G48V) represents a strain having a synthetically generated site-directed mutation in the protease from glycine to valine at amino acid position number 48. NL4(I84V) represents a strain having a synthetically generated site-directed mutation in the protease from isoleucine to valine at amino acid position number 84. NL4(R8Q,M46I) represents a strain having synthetically generated site-directed mutations in the protease from arginine to glutamine at amino acid position number 8 and methionine to isoleucine at amino acid position number 46. NL4(P22-538) represents a mixture of resistant strains obtained by selection of HIV-1NL4-3 against the compound of Example 10 after 22 passages comprising protease genotypes M46I, L63P, A71V, V82F, I84V (4/10); M46I, L63P, V82F, I84V (3/10); and M46I, A71V, V82F, I84V (3/10). NL4(P37-538) represents resistant strains obtained by selection of HIV-1NL4-3 against the compound of Example 10 after 37 passages comprising protease genotype M46I, L63P, A71V, 184A. NL4(538/524) represents resistant strains obtained by selection of NL4(P22-538) against the compound of Example 5 after 24 passages comprising protease genotype M46I, L63P, A71V, 184A. NL4(538/P7-AG) represents a mixture of resistant strains obtained by selection of NL4(P22-538) against the compound of Example 12 after 7 passages comprising protease genotypes M46I, L63P, A71V, 184A; and V321, V82I. NL4(538/P24-AG) represents resistant strains obtained by selection of NL4(P22-538) against the compound of Example 12 after 24 passages comprising protease genotype M46I, L63P, A71V, 184A. NLA(P19-003) represents resistant strains obtained by selection of HIV-1^NL4-3 against the compound of Example 9 after 19 passages comprising protease genotype R8K, M46I. NL4(P34-003) represents resistant strains obtained by selection of HIV-1^NL4-3 against the compound of Example 9 after 34 passages comprising protease genotype R8K, M46I, L63P, A71V, L90M.
(§2) The viral isolate resistance results summarized in Tables 4-6 were generated according to the following assay procedure or minor modifications thereof. Assays are performed in 96-well tissue culture plates. […]

NL4(P37-538) = experiment: Viral isolate resistance assay per Markowitz et al., NL4(P37-538); type: cell-based, HIV-1
Source text: as §1
The viral isolate resistance results summarized in Tables 7-11 were generated according to the assay procedures described by Markowitz et al., Journal of Virology, vol. […]

HIV-1NL4-3 = experiment: microbe, parasite or virus in culture; type: cell-based; conditions: Human immunodeficiency virus 1, NL4; for EC90: Table 7, read-out: Virus Isolate (EC90 nM) NL4; for EC50: read-out: Virus Isolate (EC50 nM) NL4
Source text: (§3) RF represents the HIV-1 strain HIV-LRF and RFR represents a mixture of resistant strains obtained by selection of RF against the compound of Example 1. […] RFR2 represents a mixture of resistant strains obtained by cloning RFR by three rounds of growth at limiting dilution. […] RFRR represents a mixture of resistant strains obtained by selection of RF against the compounds of Examples 1 and 2 and then cloning by three rounds of growth at limiting dilution. […] SF162 represents the HIV-1 strain SF-162 and SF162R represents a mixture of resistant strains obtained by selection of SF162 against the compound of Example 1. […] 89-959 represents the HIV-1 strain 89-959 and 89-959R represents a mixture of resistant strains obtained by selection of 89-959 against the compound of Example 2. […] NL4 represents the HIV-1 strain HIV-1NL4-3. NL4(G48V) represents a strain having a synthetically generated site-directed mutation in the protease from glycine to valine at amino acid position number 48. NL4(I84V) represents a strain having a synthetically generated site-directed mutation in the protease from isoleucine to valine at amino acid position number 84. NL4(R8Q,M46I) represents a strain having synthetically generated site-directed mutations in the protease from arginine to glutamine at amino acid position number 8 and methionine to isoleucine at amino acid position number 46.

HIV-1RF = experiment: CEM-T4 cell infection assay, reverse transcriptase readout, isolate RF; type: cell-based; conditions: Human immunodeficiency virus 1, CEM-T4, 168 h, Table 6, CEM-T4 cells, 7 days, read-out: Virus Isolate (EC50 ng/mL) RF
Source text: as §1, §2

NL4(538/P7-AG) = experiment: Viral isolate resistance assay per Markowitz et al., NL4(538/P7-AG); type: cell-based, HIV-1; conditions: Human immunodeficiency virus 1; Table 10; NL4(P22-538) selected against Example 12, 7 passages
Source text: as §1, with “NLA(P19-003) represents resistant strains obtained by selection of HIV-1^NL4-3 against the compound of Example 9 after 19 passages comprising protease genotype R8K, M46I. NL4(P34-003) represents resistant strains obtained by selection of HIV-1^NL4-3 against the compound of Example 9 after 34 passages comprising protease genotype R8K, M46I, L63P, A71V, L90M.” left out

NL4(538/P24-AG) = experiment: Viral isolate resistance assay per Markowitz et al., NL4(538/P24-AG); type: cell-based, HIV-1; conditions: Human immunodeficiency virus 1; Table 10; NL4(P22-538) selected against Example 12, 24 passages
Source text: as §1, with “NLA(P19-003) represents resistant strains obtained by selection of HIV-1^NL4-3 against the compound of Example 9 after 19 passages comprising protease genotype R8K, M46I. NL4(P34-003) represents resistant strains obtained by selection of HIV-1^NL4-3 against the compound of Example 9 after 34 passages comprising protease genotype R8K, M46I, L63P, A71V, L90M.” left out

NL4(538/524) = experiment: Viral isolate resistance assay per Markowitz et al., NL4(538/524); type: cell-based, HIV-1; conditions: Human immunodeficiency virus 1; Table 10; NL4(P22-538) selected against Example 5, 24 passages
Source text: as §1, with “NLA(P19-003) represents resistant strains obtained by selection of HIV-1^NL4-3 against the compound of Example 9 after 19 passages comprising protease genotype R8K, M46I. NL4(P34-003) represents resistant strains obtained by selection of HIV-1^NL4-3 against the compound of Example 9 after 34 passages comprising protease genotype R8K, M46I, L63P, A71V, L90M.” left out

[2] = test system: RFRR (resistant strains selected from RF against Examples 1 and 2); experiment: CEM-T4 cell infection assay, reverse transcriptase readout, resistant isolate RFRR; type: cell-based, HIV-1; conditions: Human immunodeficiency virus 1, 168 h, Table 6, CEM-T4 cells, 7 days, read-out: Virus Isolate (EC50 ng/mL) RFRR
Source text: as §1, §2

NL4(I84V) = experiment: Viral isolate resistance assay per Markowitz et al., NL4(I84V); type: cell-based, HIV-1; conditions: Human immunodeficiency virus 1, Table 7
Source text: as §3

`CNCC(=O)N[C@H](C(=O)N[C@@H](Cc1ccccc1)[C@H](O)CN(CC(C)C)S(=O)(=O)c1ccc2c(c1)OCO2)C(C)(C)C` [Example 16, 2S-[[(N-methylamino)acetyl]amino]-N-[2R-hydroxy-3-[[(1,3-benzodioxol-5-yl)sulfonyl](2-methylpropyl)amino]-1S-(phenylmethyl)propyl]-3.3-dimethylbutanamide] was tested, and the EC50 [1] was 1 ng/mL (≈ 1.65 nM), the EC50 (NL4(P37-538); Human immunodeficiency virus 1, Table 9, selected against Example 10, 37 passages, read-out: Virus Isolate (EC50 nM) NL4(P37-538)) was 40 nM and the EC90 (HIV-1NL4-3) was 8 nM. It also gave an EC50 (HIV-1NL4-3; Table 8) of 8 nM, an EC50 (HIV-1RF) of 3 ng/mL (≈ 4.96 nM) and an EC50 (NL4(538/P7-AG)) of 40 nM. It also gave an EC50 (NL4(538/P24-AG)) of 40 nM, an EC50 (NL4(538/524)) of 40 nM and an EC50 [2] of 9 ng/mL (≈ 14.9 nM).

`CC(C)CN(C[C@@H](O)[C@H](Cc1ccccc1)NC(=O)[C@@H](NC(=O)CN1CCCC1)C(C)(C)C)S(=O)(=O)c1ccc2c(c1)OCO2` [Example 14, N-[2R-hydroxy-3-[[(1,3-benzodioxol-5-yl)sulfonyl](2-methylpropyl)amino]-1S-(phenylmethyl)propyl]-2S-[[(pyrrolidin-1-yl)acetyl]amino]-3,3-dimethylbutanamide] showed an EC50 [1] of 6 ng/mL (≈ 9.3 nM), an EC50 (NL4(P37-538); Human immunodeficiency virus 1, read-out: Virus Isolate (EC50 nM) NL4(P37-538)) of 1000 nM and an EC90 (HIV-1NL4-3) of 8 nM. It also gave an EC50 (HIV-1NL4-3; Table 9) of 60 nM, an EC50 (HIV-1RF) of 1 ng/mL (≈ 1.55 nM) and an EC50 [2] of 39 ng/mL (≈ 60.5 nM). It also gave an EC90 (NL4(I84V)) of 72 nM.
